The source of these data is US20240270741A1 (Cogent Biosciences, Inc., priority 2023, published 2024).

Sequence of FGFR2 (P21802 399-821 limits assumed): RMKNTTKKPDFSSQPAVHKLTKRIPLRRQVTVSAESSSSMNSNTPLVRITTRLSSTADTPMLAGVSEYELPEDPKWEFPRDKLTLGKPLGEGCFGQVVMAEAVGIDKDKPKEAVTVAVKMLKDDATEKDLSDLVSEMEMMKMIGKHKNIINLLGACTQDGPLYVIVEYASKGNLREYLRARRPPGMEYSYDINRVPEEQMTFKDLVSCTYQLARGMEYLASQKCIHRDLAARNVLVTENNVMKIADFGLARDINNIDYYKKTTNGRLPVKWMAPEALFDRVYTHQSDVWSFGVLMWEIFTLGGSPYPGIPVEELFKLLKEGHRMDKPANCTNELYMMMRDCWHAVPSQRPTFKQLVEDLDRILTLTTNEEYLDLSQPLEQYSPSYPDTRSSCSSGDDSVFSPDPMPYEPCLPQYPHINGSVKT

One assay addresses FGFR2 (Homo sapiens, UniProt P21802). Kind of assay: FGFR wild type enzyme assay (HTRF KinEASE-TK), FGFR2. To be noted: Enz FGFR2 (nM). On the technique in general: Time-resolved FRET reads energy transfer from a long-lived donor to a nearby acceptor.
One may read the IC50 as the point on the concentration scale where inhibition reaches its midpoint. Take `Cc1c(-c2cc(Sc3ccccc3C#N)c3c(C#N)cnn3c2)cnn1[C@H]1CC[C@@H](N(C)C)CC1` [Example 124]: half-maximal inhibition (IC50) required 1 nM.
The same measure, in the same setting: the same measure for `Cc1c(-c2cc(Sc3ccccn3)c3c(C#N)cnn3c2)cnn1[C@H]1CCCNC1` [Example 56, 6-[5-methyl-1-[(3S)-3-piperidyl]pyrazol-4-yl]-4-(2-pyridylsulfanyl)pyrazolo[1,5-a]pyridine-3-carbonitrile]: 6 nM; for `N#Cc1cnn2cc(-c3ccc(N4CCCC4)nc3)cc(Sc3ccccn3)c12` [Example 95, 4-(2-pyridylsulfanyl)-6-(6-pyrrolidin-1-yl-3-pyridyl)pyrazolo[1,5-a]pyridine-3-carbonitrile]: 13 nM.

The same assay, now with this note: Enz FGFR2 (nM), FGFR2 wild type enzyme.
Turning to `Cc1c(-c2cc(Sc3c(F)cccc3C#N)c3c(C#N)cnn3c2)cnn1C1CCNCC1` [Example 137, 4-((2-cyano-6-fluorophenyl)thio)-6-(5-methyl-1-(piperidin-4-yl)-1H-pyrazol-4-yl)pyrazolo[1,5-a]pyridine-3-carbonitrile], the IC50 was found to be 1 nM.
In turn, `CN[C@H]1CC[C@@H](n2ncc(-c3cc(Sc4ccc(F)cc4C#N)c4c(C#N)cnn4c3)c2C)CC1` [Example 255, 4-((2-cyano-4-fluorophenyl)thio)-6-(5-methyl-1-((1s,4s)-4-(methylamino)cyclohexyl)-1H-pyrazol-4-yl)pyrazolo[1,5-a]pyridine-3-carbonitrile] yielded an IC50 of 0.3 nM.
For `Cc1c(-c2cc(Sc3c(F)cc(F)cc3C#N)c3c(C#N)cnn3c2)cnn1C1CCNCC1` [Example 145, 4-((2-cyano-4,6-difluorophenyl)thio)-6-(5-methyl-1-(piperidin-4-yl)-1H-pyrazol-4-yl)pyrazolo[1,5-a]pyridine-3-carbonitrile], the IC50 was 7 nM.
The same measure, in the same setting: the result for `Cc1c(-c2cc(Sc3ncccc3F)c3c(C#N)cnn3c2)cnn1[C@H]1CCCN(C(=O)CO)C1` [Example 167, (S)-4-((3-fluoropyridin-2-yl)thio)-6-(1-(1-(2-hydroxyacetyl)piperidin-3-yl)-5-methyl-1H-pyrazol-4-yl)pyrazolo[1,5-a]pyridine-3-carbonitrile] reads 2 nM.

Still in this assay, the particulars now being: Enz FGFR2 (nM), FGFR2 wild type enzyme assay.
For `CC(=O)N1CCC[C@H](n2cc(-c3cc(Sc4ccccc4C#N)c4c(C#N)cnn4c3)cn2)C1` [Example 516, (S)-6-(1-(1-acetylpiperidin-3-yl)-1H-pyrazol-4-yl)-4-((2-cyanophenyl)thio)pyrazolo [1,5-a]pyridine-3-carbonitrile], the midpoint of inhibition, the IC50, lay at 0.4 nM.
Turning to `COc1cc(Sc2cc(-c3cnn(C4CCN(C)CC4)c3C)cn3ncc(C#N)c23)c(C#N)cc1F` [Example 386, 4-((2-cyano-4-fluoro-5-methoxyphenyl)thio)-6-(5-methyl-1-(1-methylpiperidin-4-yl)-1H-pyrazol-4-yl)pyrazolo[1,5-a]pyridine-3-carbonitrile], the IC50 was determined as 5 nM.
Still for that read-out and setting: the same measure for `N#Cc1ccccc1Sc1cc(-c2cnn(C(F)F)c2)cn2ncc(C#N)c12` [Example 584, 4-((2-cyanophenyl)thio)-6-(1-(difluoromethyl)-1H-pyrazol-4-yl)pyrazolo[1,5-a]pyridine-3-carbonitrile]: 6 nM.
Still for that read-out and setting: the result for `N#Cc1cc(F)ccc1Sc1cc(-c2ccc(N3C[C@H](O)[C@@H](O)C3)nc2)cn2ncc(C#N)c12` [Example 611, 4-((2-cyano-4-fluorophenyl)thio)-6-(6-((3S,4S)-3,4-dihydroxypyrrolidin-1-yl)pyridin-3-yl)pyrazolo[1,5-a]pyridine-3-carbonitrile] reads 3 nM; that for `Cn1ccc(-c2cc(Sc3ccc(F)cc3C#N)c3c(C#N)cnn3c2)cc1=O` [Example 587, 4-((2-cyano-4-fluorophenyl)thio)-6-(1-methyl-2-oxo-1,2-dihydropyridin-4-yl)pyrazolo[1,5-a]pyridine-3-carbonitrile], 43 nM; that for `N#Cc1cnn2cc(-c3ccc(N4CC[C@@H](O)C4)nc3)cc(Sc3ncccc3F)c12` [Example 551, (R)-4-((3-fluoropyridin-2-yl)thio)-6-(6-(3-hydroxypyrrolidin-1-yl)pyridin-3-yl)pyrazolo[1,5-a]pyridine-3-carbonitrile], 2 nM.
